Assay [1] has as its target RON (human) (Homo sapiens, UniProt Q04912). The assay can be described thus: RON (human) AlphaScreen kinase assay, Km of ATP. The format is biochemical. The note with it: AlphaScreen, Km of ATP; read-out: RON biochemical IC50. The method, then: (§1) Someone skilled in the art will appreciate that a variety of assay formats may be used to determine the activity of the compounds of this invention. For example, AlphaScreen (Amplified Luminescent Proximity Homogeneous Assay) technology was used with the kinases described below. Assay ATP concentrations for individual kinases are included in the text.
Desired compound is added in a final concentration of 1% DMSO with control being vehicle of DMSO alone. […] Enzyme is added to initiate the reaction and incubated for 30 min at RT. In subdued light, appropriate amount of PT66 donor and acceptor beads (diluted 1:260 from manufacturer's provision in a 25 mM Tris HCl (pH=7.5), 200 mM NaCl, 100 mM EDTA, 0.3% BSA buffer) are added to the wells. The plates, incubated for 1 h, are read on an AlphaQuest plate reader.

In assay [2] the target is MET (human) (Homo sapiens, UniProt P08581). The assay can be described thus: MET (human) AlphaScreen kinase assay, Km of ATP. The assay is classed as biochemical. The settings on record: AlphaScreen, Km of ATP; read-out: Met biochemical IC50. The method, then: as §1
Desired compound is added in a final concentration of 1% DMSO with control being vehicle of DMSO alone. MET is diluted to the optimized concentration (optimized on a lot-by-lot basis) in an enzyme diluent buffer (50 mM Tris pH=7.4, 1% glycerol, 0.03% Brij35, 0.24 mM EGTA, 1 mM DTT, and 0.003% BSA). Enzyme is added to initiate the reaction and incubated for 60 min at RT. In subdued light, appropriate amount of PT66 donor and acceptor beads (diluted 1:260 from manufacturer's provision in a 25 mM Tris HCl (pH=7.5), 400 mM NaCl, 100 mM EDTA, 0.3% BSA buffer) are added to the wells. The plates, incubated for 1 h, are read on an AlphaQuest plate reader
A general note: Bead proximity is the source of the signal in Alpha formats.

As usually defined, the IC50 is the concentration that gives 50% inhibition.

MET (human), sequence (P08581 25-1390): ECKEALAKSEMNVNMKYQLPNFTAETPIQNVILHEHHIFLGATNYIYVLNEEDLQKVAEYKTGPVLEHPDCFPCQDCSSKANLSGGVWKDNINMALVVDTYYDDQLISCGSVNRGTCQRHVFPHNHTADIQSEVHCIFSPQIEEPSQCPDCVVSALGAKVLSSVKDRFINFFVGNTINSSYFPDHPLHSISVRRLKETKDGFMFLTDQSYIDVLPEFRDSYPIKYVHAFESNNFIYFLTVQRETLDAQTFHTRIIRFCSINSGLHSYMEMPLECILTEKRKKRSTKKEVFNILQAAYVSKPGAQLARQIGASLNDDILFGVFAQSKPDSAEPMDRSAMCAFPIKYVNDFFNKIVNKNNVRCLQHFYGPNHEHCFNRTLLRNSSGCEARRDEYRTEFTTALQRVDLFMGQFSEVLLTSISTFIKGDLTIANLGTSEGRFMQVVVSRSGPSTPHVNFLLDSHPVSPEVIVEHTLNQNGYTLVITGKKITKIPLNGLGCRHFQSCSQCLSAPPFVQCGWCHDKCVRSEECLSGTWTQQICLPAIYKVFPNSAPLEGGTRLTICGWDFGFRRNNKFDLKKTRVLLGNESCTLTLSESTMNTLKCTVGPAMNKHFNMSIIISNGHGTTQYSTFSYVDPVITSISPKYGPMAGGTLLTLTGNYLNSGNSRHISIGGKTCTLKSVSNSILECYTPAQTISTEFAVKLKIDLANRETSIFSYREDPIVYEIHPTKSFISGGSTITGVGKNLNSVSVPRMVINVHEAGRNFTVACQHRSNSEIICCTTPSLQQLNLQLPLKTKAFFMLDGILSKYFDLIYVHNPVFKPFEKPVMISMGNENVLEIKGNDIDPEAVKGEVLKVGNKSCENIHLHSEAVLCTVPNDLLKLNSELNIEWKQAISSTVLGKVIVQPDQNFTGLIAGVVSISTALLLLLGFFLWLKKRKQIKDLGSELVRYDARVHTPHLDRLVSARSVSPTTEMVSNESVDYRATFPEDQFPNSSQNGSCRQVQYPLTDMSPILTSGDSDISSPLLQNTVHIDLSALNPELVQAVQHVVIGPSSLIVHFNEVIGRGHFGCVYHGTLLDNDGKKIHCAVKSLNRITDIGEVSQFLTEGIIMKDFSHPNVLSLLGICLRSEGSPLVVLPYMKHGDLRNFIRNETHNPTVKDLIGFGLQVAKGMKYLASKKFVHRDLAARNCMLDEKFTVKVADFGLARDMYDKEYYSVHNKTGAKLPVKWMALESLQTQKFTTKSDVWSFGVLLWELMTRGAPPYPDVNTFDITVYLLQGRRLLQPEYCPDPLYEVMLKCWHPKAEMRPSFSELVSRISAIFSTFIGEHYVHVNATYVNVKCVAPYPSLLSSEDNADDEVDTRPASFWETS
RON (human), sequence (Q04912 25-1400): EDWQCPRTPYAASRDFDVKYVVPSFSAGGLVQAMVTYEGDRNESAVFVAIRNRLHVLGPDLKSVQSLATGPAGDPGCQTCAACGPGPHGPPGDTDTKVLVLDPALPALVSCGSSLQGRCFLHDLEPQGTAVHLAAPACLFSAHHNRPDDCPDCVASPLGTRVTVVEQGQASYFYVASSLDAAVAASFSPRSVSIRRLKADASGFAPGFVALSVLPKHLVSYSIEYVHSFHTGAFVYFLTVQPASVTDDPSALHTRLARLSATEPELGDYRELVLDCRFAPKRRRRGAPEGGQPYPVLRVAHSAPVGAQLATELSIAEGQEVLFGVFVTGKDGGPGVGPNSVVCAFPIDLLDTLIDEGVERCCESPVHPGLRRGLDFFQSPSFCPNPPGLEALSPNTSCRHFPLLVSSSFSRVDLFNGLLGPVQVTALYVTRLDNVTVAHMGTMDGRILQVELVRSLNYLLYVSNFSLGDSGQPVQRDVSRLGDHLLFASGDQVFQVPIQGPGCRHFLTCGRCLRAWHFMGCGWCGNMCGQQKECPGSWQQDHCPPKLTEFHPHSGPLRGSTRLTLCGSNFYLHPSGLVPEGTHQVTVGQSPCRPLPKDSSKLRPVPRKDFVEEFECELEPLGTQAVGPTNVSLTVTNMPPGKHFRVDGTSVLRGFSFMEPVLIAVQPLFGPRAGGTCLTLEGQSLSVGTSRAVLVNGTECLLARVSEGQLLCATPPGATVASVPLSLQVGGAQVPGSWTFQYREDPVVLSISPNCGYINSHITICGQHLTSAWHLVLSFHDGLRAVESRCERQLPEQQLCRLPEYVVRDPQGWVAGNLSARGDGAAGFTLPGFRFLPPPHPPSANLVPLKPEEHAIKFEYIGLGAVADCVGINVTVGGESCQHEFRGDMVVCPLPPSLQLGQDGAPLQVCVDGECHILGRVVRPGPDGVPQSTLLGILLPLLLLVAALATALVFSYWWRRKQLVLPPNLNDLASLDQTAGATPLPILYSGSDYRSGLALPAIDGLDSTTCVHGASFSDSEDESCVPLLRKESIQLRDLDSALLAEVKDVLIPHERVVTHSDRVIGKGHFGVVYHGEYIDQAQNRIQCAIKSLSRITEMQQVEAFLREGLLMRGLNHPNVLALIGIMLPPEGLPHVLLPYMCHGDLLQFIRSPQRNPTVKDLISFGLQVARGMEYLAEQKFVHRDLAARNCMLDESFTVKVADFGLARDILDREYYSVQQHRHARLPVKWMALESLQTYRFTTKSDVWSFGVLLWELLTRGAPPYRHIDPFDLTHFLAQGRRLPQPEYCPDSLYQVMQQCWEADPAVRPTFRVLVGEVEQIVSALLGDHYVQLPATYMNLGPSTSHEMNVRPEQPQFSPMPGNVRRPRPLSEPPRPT

As to `CC(Oc1c(N)ncc2c(-c3cnn(C4CCNCC4)c3)coc12)c1cccc(Cl)c1` (stereo not drawn) [Example 385, 7-[1-(3-Chlorophenyl)ethoxy]-3-(1-piperidin-4-yl-1H-pyrazol-4-yl)furo[3,2-c]pyridin-6-ylamine], the IC50 is 500 to 5000 nM in assay [1] and less than 500 nM in assay [2].

As to `COc1ccc(CC(C)Oc2c(N)ncc3c(-c4cnn(C5CCNCC5)c4)coc23)cc1` (stereo not drawn) [Example 431, 7-[2-(4-Methoxyphenyl)-1-methylethoxy]-3-(1-piperidin-4-yl-1H-pyrazol-4-yl)furo[3,2-c]pyridin-6-ylamine], the IC50 in assay [1] and in assay [2] was 500 to 5000 nM throughout.

`CCNC(=O)c1coc2c(O[C@H](C)c3c(Cl)ccc(F)c3Cl)c(N)ncc12` [Example 179, 6-Amino-7-[(R)-1-(2,6-dichloro-3-fluorophenyl)ethoxy]furo[3,2-c]pyridine-3-carboxylic acid ethylamide]: the IC50 is 5000 to 20000 nM in assay [1] and less than 500 nM in assay [2].

Consider `C[C@@H](Oc1c(N)ncc2c(-c3ccc(C(=O)N4CCN(CCOCCO)CC4)cc3)coc12)c1c(Cl)ccc(F)c1Cl` [Example 301, (4-{6-Amino-7-[(R)-1-(2,6-dichloro-3-fluoro-phenyl)ethoxy]furo[3,2-c]pyridin-3-yl}phenyl)-{4-[2-(2-hydroxyethoxy)ethyl]piperazin-1-yl}methanone], for which the IC50 in assay [1] and in assay [2] was 500 to 5000 nM each time.

Regarding `C[C@@H](Oc1c(N)ncc2c(-c3cccc(C(=O)NCCN4CCOCC4)c3)coc12)c1c(Cl)ccc(F)c1Cl` [Example 97, 3-{6-Amino-7-[(R)-1-(2,6-dichloro-3-fluorophenyl)ethoxy]-furo[3,2-c]pyridin-3-yl}-N-(2-morpholin-4-ylethyl)benzamide], the IC50 in assay [1] and in assay [2] was 500 to 5000 nM throughout.

Consider `CC(Oc1c(N)ncc2c(-c3cnn(C4CCNCC4)c3)coc12)c1nc2ccccc2s1` (stereo not drawn) [Example 404, 7-(1-Benzothiazol-2-ylethoxy)-3-(1-piperidin-4-yl-1H-pyrazol-4-yl)furo[3,2-c]pyridin-6-ylamine], for which the IC50 in assay [1] and in assay [2] was 500 to 5000 nM in each case.

In the case of `C[C@@H](Oc1c(N)ncc2c(-c3ccc(C(=O)Nc4nccs4)cc3)coc12)c1c(Cl)ccc(F)c1Cl` [Example 109, 4-{6-Amino-7-[(R)-1-(2,6-dichloro-3-fluorophenyl)ethoxy]-furo[3,2-c]pyridin-3-yl}-N-thiazol-2-yl-benzamide], the IC50 in assay [1] and in assay [2] was 500 to 5000 nM each time.

For `Cc1ccnc(C)c1C(C)Oc1c(N)ncc2c(-c3cnn(C4CCNCC4)c3)coc12` (stereo not drawn) [Example 362, 7-[1-(2,4-Dimethylpyridin-3-yl)ethoxy]-3-(1-piperidin-4-yl-1H-pyrazol-4-yl)furo[3,2-c]pyridin-6-ylamine], the IC50 was 500 to 5000 nM in assay [1] and less than 500 nM in assay [2].

With `CCC(=O)N1CC=C(c2coc3c(O[C@H](C)c4c(Cl)ccc(F)c4Cl)c(N)ncc23)CC1` [Example 14, 1-(4-{6-Amino-7-[(R)-1-(2,6-dichloro-3-fluorophenyl)-ethoxy]-furo[3,2-c]pyridin-3-yl}-3,6-dihydro-2H-pyridin-1-yl)-propan-1-one], the IC50 was 500 to 5000 nM in assay [1] and less than 500 nM in assay [2].

Regarding `C[C@@H]1CN(C(=O)N2CC=C(c3coc4c(O[C@H](C)c5c(Cl)ccc(F)c5Cl)c(N)ncc34)CC2)C[C@H](C)O1` [Example 30, (4-{6-Amino-7-[(R)-1-(2,6-dichloro-3-fluorophenyl)-ethoxy]-furo[3,2-c]pyridin-3-yl}-3,6-dihydro-2H-pyridin-1-yl)-((2R,6S)-2,6-dimethylmorpholin-4-yl)-methanone], the IC50 in assay [1] and in assay [2] was 500 to 5000 nM throughout.

In the case of `CNC(=O)c1cccc(-c2coc3c(O[C@H](C)c4c(Cl)ccc(F)c4Cl)c(N)ncc23)c1` [Example 68, 3-{6-Amino-7-[(R)-1-(2,6-dichloro-3-fluorophenyl)ethoxy]-furo[3,2-c]pyridin-3-yl}-N-methylbenzamide], the IC50 in assay [1] and in assay [2] was 500 to 5000 nM throughout.

As for `C[C@@H](Oc1c(N)ncc2c(-c3cccc(NS(=O)(=O)CCN(C)C)c3)coc12)c1c(Cl)ccc(F)c1Cl` [Example 249, 2-Dimethylaminoethanesulfonic Acid (3-{6-amino-7-[(R)-1-(2,6-dichloro-3-fluorophenyl)ethoxy]furo[3,2-c]pyridin-3-yl}phenyl)amide], the IC50 in assay [1] and in assay [2] was 500 to 5000 nM in each case.

For `CNC(=O)c1cccc(C(C)Oc2c(N)ncc3c(-c4cnn(C5CCNCC5)c4)coc23)c1` (stereo not drawn) [Example 412, 3-{1-[6-Amino-3-(1-piperidin-4-yl-1H-pyrazol-4-yl)furo[3,2-c]pyridin-7-yloxy]ethyl}-N-methylbenzamide], the IC50 in assay [1] and in assay [2] was 500 to 5000 nM throughout.

For the molecule `COC(=O)c1csc(-c2coc3c(O[C@H](C)c4c(Cl)ccc(F)c4Cl)c(N)ncc23)c1` [Example 292, 5-{6-Amino-7-[(R)-1-(2,6-dichloro-3-fluorophenyl)ethoxy]furo[3,2-c]pyridin-3-yl}thiophene-3-carboxylic acid methyl ester], the IC50 in assay [1] and in assay [2] was 500 to 5000 nM each time.

With `C[C@@H](Oc1c(N)ncc2c(-c3cnn([C@@H]4CCNC4)c3)coc12)c1c(Cl)ccc(F)c1Cl` [Example 162, 7-[(1R)-1-(2,6-dichloro-3-fluorophenyl)ethoxy]-3-{1-[(3R)-pyrrolidin-3-yl]-1H-pyrazol-4-yl}furo[3,2-c]pyridin-6-amine], the IC50 in assay [1] and in assay [2] was less than 500 nM each time.

As to `CC(Cc1ccccc1Cl)Oc1c(N)ncc2c(-c3cnn(C4CCNCC4)c3)coc12` (stereo not drawn) [Example 426, 7-[2-(2-Chlorophenyl)-1-methylethoxy]-3-(1-piperidin-4-yl-1H-pyrazol-4-yl)furo[3,2-c]pyridin-6-ylamine], the IC50 was 500 to 5000 nM in assay [1] and less than 500 nM in assay [2].

For `C[C@H](Oc1c(N)ncc2c(C3=CCN(C(N)=O)CC3)coc12)c1c(Cl)ccc(F)c1Cl` [Example 456, 4-{6-Amino-7-[(S)-1-(2,6-dichloro-3-fluorophenyl)ethoxy]furo[3,2-c]pyridin-3-yl}-3,6-dihydro-2H-pyridine-1-carboxamide], the figures for the IC50 in assay [1] and in assay [2] were 500 to 5000 nM and less than 500 nM, respectively.

Regarding `C[C@@H](Oc1c(N)ncc2c(-c3cccc(NS(=O)(=O)CCC(F)(F)F)c3)coc12)c1c(Cl)ccc(F)c1Cl` [Example 248, 3,3,3-Trifluoropropane-1-sulfonic acid (3-{6-amino-7-[(R)-1-(2,6-dichloro-3-fluorophenyl)ethoxy]-furo[3,2-c]pyridin-3-yl}phenyl)amide], the IC50 in assay [1] lay within 5000 to 20000 nM; in assay [2], 500 to 5000 nM.

On to `CC(Cc1c(F)cccc1C(F)(F)F)Oc1c(N)ncc2c(-c3cnn(C4CCNCC4)c3)coc12` (stereo not drawn) [Example 441, 7-[2-(2-Fluoro-6-trifluoromethylphenyl)-1-methylethoxy]-3-(1-piperidin-4-yl-1H-pyrazol-4-yl)furo[3,2-c]pyridin-6-ylamine], for which the IC50 in assay [1] was 500 to 5000 nM; in assay [2], less than 500 nM.

On to `C[C@@H](Oc1c(N)ncc2c(-c3cccc(C(=O)N(C)C)c3)coc12)c1c(Cl)ccc(F)c1Cl` [Example 73, 3-{6-Amino-7-[(R)-1-(2,6-dichloro-3-fluorophenyl)ethoxy]-furo[3,2-c]pyridin-3-yl}-N,N-dimethylbenzamide], for which the IC50 in assay [1] and in assay [2] was 500 to 5000 nM throughout.

For `C[C@@H](Oc1c(N)ncc2c(-c3cccn3C)coc12)c1c(Cl)ccc(F)c1Cl` [Example 121, 7-[(R)-1-(2,6-Dichloro-3-fluorophenyl)ethoxy]-3-(1-methyl-1H-pyrrol-2-yl)furo[3,2-c]pyridin-6-ylamine], the IC50 in assay [1] and in assay [2] was 500 to 5000 nM each time.

In the case of `CCCOC(=O)N1CC=C(c2coc3c(O[C@H](C)c4c(Cl)ccc(F)c4Cl)c(N)ncc23)CC1` [Example 52, 4-{6-Amino-7-[(R)-1-(2,6-dichloro-3-fluorophenyl)-ethoxy]-furo[3,2-c]pyridin-3-yl}-3,6-dihydro-2H-pyridine-1-carboxylic acid propyl ester], the IC50 in assay [1] and in assay [2] was 500 to 5000 nM throughout.

With `C[C@@H](Oc1c(N)ncc2c(C3=CCN(CC#N)CC3)coc12)c1c(Cl)ccc(F)c1Cl` [Example 321, (4-{6-Amino-7-[(R)-1-(2,6-dichloro-3-fluorophenyl)ethoxy]furo[3,2-c]pyridin-3-yl}-3,6-dihydro-2H-pyridin-1-yl)acetonitrile], the IC50 in assay [1] was 500 to 5000 nM; in assay [2] it was less than 500 nM.

On to `C[C@@H](Oc1c(N)ncc2c(-c3ccc(NC(N)=O)cc3)coc12)c1c(Cl)ccc(F)c1Cl` [Example 108, (4-{6-Amino-7-[(R)-1-(2,6-dichloro-3-fluorophenyl)ethoxy]furo[3,2-c]pyridin-3-yl}phenyl)urea], for which the IC50 in assay [1] and in assay [2] was 500 to 5000 nM in each case.

The values above are taken from patent US8022206B2 (OSI Pharmaceuticals, LLC, priority 2008, dated 2011).
